Molecular target: T1, recombinant human Seprase (rhuSeprase) (Homo sapiens, UniProt Q12884)
T1 construct: named pCEP4-IgKappa-huSeprase-coCHO_26-760aa-H6 and used for the generation of recombinant soluble human Seprase (rhuSeprase); mouse Ig kappa-chain V-J2-C secretion signal (N, cleaved yes); made in house; host or cells: FreeStyle CHO-S cells (transient transfection; purified from supernatant by Ni-chelate and SEC)
T1 sequence (Q12884 26-760): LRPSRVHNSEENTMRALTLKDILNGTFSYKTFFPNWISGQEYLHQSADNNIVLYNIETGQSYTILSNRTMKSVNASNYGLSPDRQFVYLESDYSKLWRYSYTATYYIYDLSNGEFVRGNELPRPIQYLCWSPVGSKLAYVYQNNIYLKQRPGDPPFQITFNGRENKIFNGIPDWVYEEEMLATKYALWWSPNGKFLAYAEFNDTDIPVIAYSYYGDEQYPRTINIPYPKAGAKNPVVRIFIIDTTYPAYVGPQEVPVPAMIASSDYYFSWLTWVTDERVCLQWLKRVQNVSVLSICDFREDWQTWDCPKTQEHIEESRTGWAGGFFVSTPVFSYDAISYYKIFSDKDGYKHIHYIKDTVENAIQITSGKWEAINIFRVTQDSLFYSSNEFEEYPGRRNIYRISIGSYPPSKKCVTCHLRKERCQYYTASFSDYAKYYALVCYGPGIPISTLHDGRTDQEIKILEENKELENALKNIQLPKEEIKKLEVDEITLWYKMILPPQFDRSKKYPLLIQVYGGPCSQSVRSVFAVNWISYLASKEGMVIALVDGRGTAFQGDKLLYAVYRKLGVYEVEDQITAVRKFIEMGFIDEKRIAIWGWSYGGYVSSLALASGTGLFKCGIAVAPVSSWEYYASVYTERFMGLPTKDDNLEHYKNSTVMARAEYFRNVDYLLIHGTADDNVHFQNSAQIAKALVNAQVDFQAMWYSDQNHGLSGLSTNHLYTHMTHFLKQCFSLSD
Experiment: Surface plasmon resonance (Biacore T100) on immobilized rhuSeprase
Format: binding

Compound: CC[C@H](C)[C@@H]1NC(=O)[C@@H]2CSSC[C@H](NC(=O)[C@H](C)NC(=O)CNC(=O)[C@H](CO)NC(=O)CNC(=O)CON=CC(=O)NCCCC[C@H](NC(=O)[C@H](CO)NC(=O)CNC(=O)[C@H](CO)NC(=O)CNC(=O)[C@H](CCCCNC(=O)C=NOCC(=O)NCC(=O)N[C@@H](CO)C(=O)NCC(=O)N[C@@H](C)C(=O)N[C@H]3CSSC[C@@H]4NC(=O)[C@H](CCCNC(=N)N)NC(=O)CNC(=O)[C@@H]5CCCN5C(=O)[C@@H]5CSSC[C@@H](C(=O)NCC(=O)O)NC(=O)[C@H](Cc6ccc(O)cc6)NC(=O)CNC(=O)[C@H](CC(N)=O)NC(=O)CNC(=O)[C@H](CCCNC(=N)N)NC(=O)[C@H](CSSC[C@H](NC(=O)[C@H](CC(=O)O)NC(=O)[C@@H]6CCCN6C(=O)CNC(=O)[C@H](CCCNC(=N)N)NC(=O)CNC(=O)[C@@H]6CCCN6C(=O)[C@H]([C@@H](C)O)NC(=O)[C@H](Cc6c[nH]c7ccccc67)NC(=O)[C@H](CC(N)=O)NC(=O)[C@H](CO)NC(=O)[C@H](Cc6ccc(O)cc6)NC(=O)[C@@H]6CCCN6C3=O)C(=O)N[C@@H](CCCNC(=N)N)C(=O)N[C@@H](CCCNC(=N)N)C(=O)N[C@@H](CC(=O)O)C(=O)N[C@@H](CO)C(=O)N[C@@H](CC(=O)O)C(=O)N5)NC(=O)[C@H]([C@@H](C)CC)NC4=O)NC(=O)[C@H](CO)NC(=O)CNC(=O)[C@H](CO)NC(=O)CNC(=O)[C@H](CCCCNC(=O)C=NOCC(=O)NCC(=O)N[C@@H](CO)C(=O)NCC(=O)N[C@@H](C)C(=O)N[C@H]3CSSC[C@@H]4NC(=O)[C@H](CCCNC(=N)N)NC(=O)CNC(=O)[C@@H]5CCCN5C(=O)[C@@H]5CSSC[C@@H](C(=O)NCC(=O)O)NC(=O)[C@H](Cc6ccc(O)cc6)NC(=O)CNC(=O)[C@H](CC(N)=O)NC(=O)CNC(=O)[C@H](CCCNC(=N)N)NC(=O)[C@H](CSSC[C@H](NC(=O)[C@H](CC(=O)O)NC(=O)[C@@H]6CCCN6C(=O)CNC(=O)[C@H](CCCNC(=N)N)NC(=O)CNC(=O)[C@@H]6CCCN6C(=O)[C@H]([C@@H](C)O)NC(=O)[C@H](Cc6c[nH]c7ccccc67)NC(=O)[C@H](CC(N)=O)NC(=O)[C@H](CO)NC(=O)[C@H](Cc6ccc(O)cc6)NC(=O)[C@@H]6CCCN6C3=O)C(=O)N[C@@H](CCCNC(=N)N)C(=O)N[C@@H](CCCNC(=N)N)C(=O)N[C@@H](CC(=O)O)C(=O)N[C@@H](CO)C(=O)N[C@@H](CC(=O)O)C(=O)N5)NC(=O)[C@H]([C@@H](C)CC)NC4=O)NC(=O)[C@H](CO)NC(=O)CNC(=O)[C@H](CO)NC(=O)CNC(=O)CN3CCN(CC(=O)O)CCN(CC(=O)O)CCN(CC(=O)O)CC3)C(=O)O)C(=O)N3CCC[C@H]3C(=O)N[C@@H](Cc3ccc(O)cc3)C(=O)N[C@@H](CO)C(=O)N[C@@H](CC(N)=O)C(=O)N[C@@H](Cc3c[nH]c4ccccc34)C(=O)N[C@@H]([C@@H](C)O)C(=O)N3CCC[C@H]3C(=O)NCC(=O)N[C@@H](CCCNC(=N)N)C(=O)NCC(=O)N3CCC[C@H]3C(=O)N[C@@H](CC(=O)O)C(=O)N[C@H]3CSSC[C@H](NC1=O)C(=O)N[C@@H](CCCNC(=N)N)C(=O)NCC(=O)N[C@@H](CC(N)=O)C(=O)NCC(=O)N[C@@H](Cc1ccc(O)cc1)C(=O)N[C@H](C(=O)NCC(=O)O)CSSC[C@H](NC(=O)[C@H](CC(=O)O)NC(=O)[C@H](CO)NC(=O)[C@H](CC(=O)O)NC(=O)[C@H](CCCNC(=N)N)NC(=O)[C@H](CCCNC(=N)N)NC3=O)C(=O)N1CCC[C@H]1C(=O)NCC(=O)N[C@@H](CCCNC(=N)N)C(=O)N2 (single isomer, unassigned) [DOTA-(MC-FA-012)3]
- offrate, times slower compared to MC-FA-012: around 530 times
- kon (read-out: ka (1/Ms)): 2.11e+07 M⁻¹ s⁻¹
